Assay [1] concerns MCD diet NASH mice. In words: Serum AST and ALT of compounds treated-NASH mice (MCD diet). It is filed as in vivo, Male C57BL/6 mice. The settings on record: MCD diet mice; for Serum ALT (U/L) / Serum AST (U/L): 100 mg/kg oral, PG/TPSG (1:1); for effect on serum concentrations of AST and ALT, in words: 100 mg/kg oral (Table 2). The protocol:
(§1) Animals and experimental protocol: Male C57BL/6 mice, 4 weeks of age, were purchased from Laboratory Animal Center (Taiwan, China) were maintained under the procedures and guidelines provided by the Institutional Animal Care and Use Committee of the Health Research Institutes (Taiwan, China). They were maintained with free access to pellet food and water in stainless-steel cages at a temperature of 21±2° C. with a 12 h light/dark cycle.
(§2) Mice were randomly divided into five groups and treated as follows: (1) MCD diet+PG/TPSG (2) MCD diet+100 mg/kg all compounds. After 28 days, animals were sacrificed for the collection of blood for determination of plasma ALT and AST concentrations, and liver samples for H&E stain.
(§3) After 28 days, animals were sacrificed for the collection of blood for determination of plasma ALT and AST concentrations, and liver samples for H&E stain.

The test system of assay [2] is hepatic steatosis induced by MCD diet. In words: Histological examination (H&E stain) of liver of MCD diet mice. The format is in vivo, Male C57BL/6 mice. The settings on record: for effect on MCD diet-induced steatohepatitis (H&E staining), in words / Steatosis / Ballooning / Fibrosis / Inflammation / Scores: MCD diet mice; for effect on MCD diet-induced steatohepatitis (H&E staining), in words / Avg / Ballooning / Fibrosis / Inflammation / Sum / Scores: 100 mg/kg oral; for Avg: average of Scores of the group; for Avg / Ballooning / Fibrosis / Inflammation / Sum / Scores: PG/TPSG (1:1); for Steatosis / Ballooning / Fibrosis / Inflammation: score per animal; for Steatosis: 100 mg/kg oral once daily, 5 times a week, in PG/TPSG (1:1); for Sum: sum of Scores of the 4 animals of the group; for Scores: total score per animal. The protocol: as §1, §2, §3

“And” between values parts separate entries of the source, which are not always exact repeats. Identical values can stand only once.

As for `CCC(C)C(N)C(=O)NCCOC(=O)Oc1ccc(/C=C/c2cc(OC)cc(OC)c2)cc1.Cl` (stereo not shown) [Compound 5e, (E)-2-(2-amino-3-methylpentanamido)ethyl (4-(3,5-dimethoxystyryl)phenyl) carbonate hydrochloride], in assay [1], the “Serum ALT (U/L)” value was found to be 209.62 U/L and the “Serum AST (U/L)” value was determined as 419.25 U/L. In assay [2], the “effect on MCD diet-induced steatohepatitis (H&E staining), in words” value (shortened to “effect … (H&E staining), in words”) is “prevented MCD diet-induced steatohepatitis”; the Avg was 7.75; the Steatosis stood at 3; the Ballooning was determined as 2. In assay [2], this compound gave a Fibrosis of 0 and a Sum of 31. Moreover, in assay [2] (hydrochloride, 100 mg/kg), the Inflammation is 3 (3×) and 2; the Scores is 8 (3×) and 7.
For `COc1cc(/C=C/c2ccc(OC(=O)OCCNC(=O)C(C)N)cc2)cc(OC)c1.Cl` (stereo not shown) [Compound 5b, (E)-2-(2-aminopropanamido)ethyl (4-(3,5-dimethoxystyryl)phenyl) carbonate hydrochloride], in assay [1], the “effect on serum concentrations of AST and ALT, in words” value (“effect on serum concentrations” below) was “significantly inhibited the serum concentrations of AST and ALT”; the “Serum ALT (U/L)” value worked out at 180.88 U/L; the “Serum AST (U/L)” value worked out at 235.25 U/L. Besides, in assay [2], the “effect … (H&E staining), in words” value is “prevented MCD diet-induced steatohepatitis”; the Avg came to 4.5; the Fibrosis is on record as 0; the Sum was found to be 19. In assay [2] (hydrochloride, 100 mg/kg), the Steatosis is 2 (3×) and 3; the Ballooning was 1 (3×) and 2; the Inflammation is 2 and 1 (3×); the Scores was 5 and 4 (2×) and 6.
Regarding `COc1cc(/C=C/c2ccc(OC(=O)OCCNC(=O)C(N)C(C)O)cc2)cc(OC)c1.Cl` (stereo not shown) [Compound 5h, (E)-2-(2-amino-3-hydroxybutanamido)ethyl (4-(3,5-dimethoxystyryl)phenyl) carbonate hydrochloride], in assay [1], the “effect on serum concentrations” value is “significantly inhibited the serum concentrations of AST and ALT”; the “Serum ALT (U/L)” value is 150.75 U/L; the “Serum AST (U/L)” value came out at 301.50 U/L. In assay [2], this compound showed an Avg of 8, a Steatosis of 3, a Ballooning of 2 and a Fibrosis of 0. In assay [2], this compound showed an Inflammation of 3, a Sum of 32 and a Scores of 8.
For `COc1cc(/C=C/c2ccc(OC(=O)NCCNC(=O)C(N)Cc3ccccc3)cc2)cc(OC)c1.Cl` (stereo not shown) [Compound 7e, (E)-4-(3,5-dimethoxystyryl)phenyl (2-(2-amino-3-phenylpropanamido)ethyl) carbamate hydrochloride], in assay [1], the “Serum ALT (U/L)” value came out at 286.75 U/L and the “Serum AST (U/L)” value is reported as 477.00 U/L. Besides, in assay [2], the “effect … (H&E staining), in words” value is given as “prevented MCD diet-induced steatohepatitis”; the Avg is 7.75; the Steatosis is reported as 3; the Ballooning is 2. In assay [2], the Fibrosis worked out at 0 and the Sum is 31. Also, in assay [2] (hydrochloride, 100 mg/kg), the Inflammation was 3 (3×) and 2; the Scores is 8 (3×) and 7.
Regarding `COc1cc(/C=C/c2ccc(OC(=O)OCCNC(=O)C(N)CC(C)C)cc2)cc(OC)c1.Cl` (stereo not shown) [Compound 5d, (E)-2-(2-amino-4-methylpentanamido)ethyl (4-(3,5-dimethoxystyryl)phenyl) carbonate hydrochloride], in assay [1], the “effect on serum concentrations” value is “significantly inhibited the serum concentrations of AST and ALT”; the “Serum ALT (U/L)” value came to 196.13 U/L; the “Serum AST (U/L)” value is 392.25 U/L. Further, in assay [2], the “effect … (H&E staining), in words” value is on record as “prevented MCD diet-induced steatohepatitis”; the Avg is given as 7.75; the Ballooning was 2; the Fibrosis stood at 0. Besides, in assay [2], the Inflammation was found to be 3 and the Sum was 31. Besides, in assay [2] (hydrochloride, 100 mg/kg), the Steatosis is 3 (3×) and 2; the Scores was 8 (3×) and 7.
Regarding `COc1cc(/C=C/c2ccc(OC(=O)NCCNC(=O)C(N)C(C)C)cc2)cc(OC)c1.Cl` (stereo not shown) [Compound 7c, (E)-4-(3,5-dimethoxystyryl)phenyl (2-(2-amino-3-methylbutanamido)ethyl) carbamate hydrochloride], in assay [1], the “Serum ALT (U/L)” value is recorded as 252.13 U/L and the “Serum AST (U/L)” value is 435.25 U/L. Besides, in assay [2], the “effect … (H&E staining), in words” value was “prevented MCD diet-induced steatohepatitis”; the Avg is recorded as 7.75; the Ballooning came out at 2; the Fibrosis worked out at 0. For the same compound, in assay [2], the Inflammation was determined as 3 and the Sum amounted to 31. In assay [2] (hydrochloride, 100 mg/kg), the Steatosis is 3 (3×) and 2; the Scores is 8 (3×) and 7.
`COc1cc(/C=C/c2ccc(OC(=O)OCCNC(=O)C(N)CCSC)cc2)cc(OC)c1.Cl` (stereo not shown) [Compound 5f, (E)-2-(2-amino-4-(methylthio)butanamido)ethyl (4-(3,5-dimethoxystyryl)phenyl) carbonate hydrochloride]: in assay [1], the “effect on serum concentrations” value is “significantly inhibited the serum concentrations of AST and ALT”; the “Serum ALT (U/L)” value was 153.00 U/L; the “Serum AST (U/L)” value is reported as 241.75 U/L. In assay [2], the “effect … (H&E staining), in words” value is recorded as “prevented MCD diet-induced steatohepatitis”; the Avg was 6.25; the Steatosis came to 2; the Fibrosis worked out at 0. In assay [2], this compound gave a Sum of 25 and a Scores of 5. Also, in assay [2] (hydrochloride, 100 mg/kg), the Ballooning is 1 (3×) and 2; the Inflammation was 2 (3×) and 1.
In the case of `COc1cc(/C=C/c2ccc(OC(=O)OCCNC(=O)C(N)Cc3ccccc3)cc2)cc(OC)c1.Cl` (stereo not shown) [Compound 5j, (E)-2-(2-amino-3-phenylpropanamido)ethyl (4-(3,5-dimethoxystyryl)phenyl) carbonate hydrochloride], in assay [1], the “Serum ALT (U/L)” value is reported as 299.00 U/L and the “Serum AST (U/L)” value was found to be 598.00 U/L. For the same compound, in assay [2], the “effect … (H&E staining), in words” value is listed as “prevented MCD diet-induced steatohepatitis”; the Avg was 7.75; the Ballooning is 2; the Fibrosis was found to be 0. For the same compound, in assay [2], the Inflammation is listed as 3 and the Sum came out at 31. In assay [2] (hydrochloride, 100 mg/kg), the Steatosis was 3 (3×) and 2; the Scores is 8 (3×) and 7.
Regarding `COc1cc(/C=C/c2ccc(OC(=O)OCCNC(=O)C(N)CC(N)=O)cc2)cc(OC)c1.Cl` (stereo not shown) [Compound 5p, (E)-2-(2,4-diamino-4-oxobutanamido)ethyl (4-(3,5-dimethoxystyryl)phenyl) carbonate hydrochloride], in assay [1], the “effect on serum concentrations” value was “significantly inhibited the serum concentrations of AST and ALT”; the “Serum ALT (U/L)” value came out at 288.50 U/L; the “Serum AST (U/L)” value is 327.00 U/L. Also, in assay [2], the “effect … (H&E staining), in words” value is given as “prevented MCD diet-induced steatohepatitis”; the Avg stood at 7.75; the Ballooning came out at 2; the Fibrosis came to 0. In assay [2], this compound showed an Inflammation of 3 and a Sum of 31. For the same compound, in assay [2] (hydrochloride, 100 mg/kg), the Steatosis was 3 (3×) and 2; the Scores is 8 (3×) and 7.

The record behind these values is US12466784B2, “Analogs of pterostilbene amino acid bearing carbonates for treating a non-alcoholic fatty liver disease and nonalcoholic steatohepatitis” (APICAL MOLECULAR BIOTECH CO., LTD., priority 2020, dated 2025).
